Measured values from ChEMBL document CHEMBL5244248, “A novel long-acting oxyntomodulin analogue eliminates diabetes and obesity in mice” (Eur J Med Chem, 2020).
Numbered stars: 1 amine (or outer) side, 2 acyl side, 3 side chain; on linkers, the order of the positions; unused ones are H or OH. Square brackets hold non-standard residues; d marks the D form. Peptide text beside a SMILES is read from it. X1 = CC(C)(CN([C@@H](CCC(N)=O)C(=O)[*:2])[*:1])NC(=O)[C@@H](N)Cc1c[nH]cn1; Aib = CC(C)(N)C(=O)O

Assays:
Glucagon receptor = Glucagon receptor (Mus musculus, UniProt Q61606); assay: Agonist activity at mouse GCGR expressed in CHO cells assessed as increase in cAMP accumulation; type: cell-based
[1] = biological target: T1, Glucagon-like peptide 1 receptor (Mus musculus, UniProt O35659); assay: Agonist activity at mouse GLP-1R expressed in CHO cells assessed as increase in cAMP accumulation; type: cell-based
T1 sequence (O35659 whole entry): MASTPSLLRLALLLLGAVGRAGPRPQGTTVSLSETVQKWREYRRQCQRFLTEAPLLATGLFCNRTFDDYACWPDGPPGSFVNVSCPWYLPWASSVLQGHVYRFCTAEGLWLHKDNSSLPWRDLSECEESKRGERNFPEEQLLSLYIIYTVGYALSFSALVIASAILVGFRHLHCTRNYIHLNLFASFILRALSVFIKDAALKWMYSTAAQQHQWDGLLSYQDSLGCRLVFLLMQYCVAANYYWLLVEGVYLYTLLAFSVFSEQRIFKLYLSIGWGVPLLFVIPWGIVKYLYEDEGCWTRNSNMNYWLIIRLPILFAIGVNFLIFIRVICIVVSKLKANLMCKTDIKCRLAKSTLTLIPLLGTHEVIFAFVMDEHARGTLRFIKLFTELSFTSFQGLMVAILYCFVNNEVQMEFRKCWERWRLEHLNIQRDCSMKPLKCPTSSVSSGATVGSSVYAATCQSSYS

Glucagon receptor, sequence (Q61606 whole entry): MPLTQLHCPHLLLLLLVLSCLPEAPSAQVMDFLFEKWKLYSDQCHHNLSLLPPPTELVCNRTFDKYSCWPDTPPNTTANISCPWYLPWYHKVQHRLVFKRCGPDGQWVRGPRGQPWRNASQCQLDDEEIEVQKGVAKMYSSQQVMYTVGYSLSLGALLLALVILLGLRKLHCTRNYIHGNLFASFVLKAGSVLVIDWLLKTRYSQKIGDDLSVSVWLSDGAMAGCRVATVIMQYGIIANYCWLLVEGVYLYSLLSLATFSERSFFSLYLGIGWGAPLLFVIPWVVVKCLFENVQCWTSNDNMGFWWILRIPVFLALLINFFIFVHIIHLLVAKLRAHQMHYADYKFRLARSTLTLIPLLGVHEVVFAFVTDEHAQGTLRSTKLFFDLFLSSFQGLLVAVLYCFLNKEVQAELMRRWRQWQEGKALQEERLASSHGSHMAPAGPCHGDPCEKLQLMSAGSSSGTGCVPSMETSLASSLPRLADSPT

EC50 (Glucagon receptor) [nM]	EC50 [1] [nM]	Compound
1.44	1.36	CC[C@H](C)[C@H](NC(=O)[C@H](CC(N)=O)NC(=O)[C@H](CC(N)=O)NC(=O)[C@H](CCCNC(=N)N)NC(=O)[C@H](CC(N)=O)NC(=O)[C@H](CCCNC(=N)N)NC(=O)[C@H](CCCCN)NC(=O)[C@@H](NC(=O)[C@H](CC(N)=O)NC(=O)[C@H](CCSC)NC(=O)[C@H](CC(C)C)NC(=O)[C@H](Cc1c[nH]c2ccccc12)NC(=O)[C@H](CCC(=O)O)NC(=O)[C@@H](NC(=O)[C@H](Cc1ccccc1)NC(=O)[C@H](CCC(=O)O)NC(=O)[C@H](CCCCN)NC(=O)[C@H](C)NC(=O)[C@H](CCCNC(=N)N)NC(=O)[C@H](CCCCN)NC(=O)[C@H](CCC(=O)O)NC(=O)[C@H](CC(=O)O)NC(=O)[C@H](CC(C)C)NC(=O)[C@H](Cc1ccc(O)cc1)NC(=O)[C@H](CCCCN)NC(=O)[C@H](CO)NC(=O)[C@H](Cc1ccc(O)cc1)NC(=O)[C@H](CC(=O)O)NC(=O)[C@H](CO)NC(=O)[C@@H](NC(=O)[C@H](Cc1ccccc1)NC(=O)[C@@H](NC(=O)CNC(=O)[C@H](CCC(N)=O)NC(=O)C(C)(C)NC(=O)[C@@H](N)Cc1c[nH]cn1)[C@@H](C)O)[C@@H](C)O)C(C)C)[C@@H](C)O)C(=O)N[C@@H](C)C(N)=O (H-H[Aib]QGTFTSDYSKYLDEKRAKEFVEWLMNTKRNRNNIA-NH2)
0.94	0.61	CC[C@H](C)[C@H](NC(=O)[C@H](CC(N)=O)NC(=O)[C@H](CC(N)=O)NC(=O)[C@H](CCCNC(=N)N)NC(=O)[C@H](CC(N)=O)NC(=O)[C@H](CCCNC(=N)N)NC(=O)[C@H](CCCCN)NC(=O)[C@@H](NC(=O)[C@H](CC(N)=O)NC(=O)[C@H](CCSC)NC(=O)[C@H](CC(C)C)NC(=O)[C@H](Cc1c[nH]c2ccccc12)NC(=O)[C@H](CCC(N)=O)NC(=O)[C@@H](NC(=O)[C@H](Cc1ccccc1)NC(=O)[C@H](CCC(=O)O)NC(=O)[C@H](CCCCN)NC(=O)[C@H](C)NC(=O)[C@H](CCCNC(=N)N)NC(=O)[C@H](CCCCN)NC(=O)[C@H](CCC(=O)O)NC(=O)[C@H](CC(=O)O)NC(=O)[C@H](CC(C)C)NC(=O)[C@H](Cc1ccc(O)cc1)NC(=O)[C@H](CCCCN)NC(=O)[C@H](CO)NC(=O)[C@H](Cc1ccc(O)cc1)NC(=O)[C@H](CC(=O)O)NC(=O)[C@H](CO)NC(=O)[C@@H](NC(=O)[C@H](Cc1ccccc1)NC(=O)[C@@H](NC(=O)CNC(=O)[C@H](CCC(N)=O)NC(=O)C(C)(C)NC(=O)[C@@H](N)Cc1c[nH]cn1)[C@@H](C)O)[C@@H](C)O)C(C)C)[C@@H](C)O)C(=O)N[C@@H](C)C(N)=O
3.41	1.59	CC[C@H](C)[C@H](NC(=O)[C@H](CC(N)=O)NC(=O)[C@H](CC(N)=O)NC(=O)[C@H](CCCNC(=N)N)NC(=O)[C@H](CC(N)=O)NC(=O)[C@H](CCCNC(=N)N)NC(=O)[C@H](CCCCN)NC(=O)[C@@H](NC(=O)[C@H](CC(N)=O)NC(=O)[C@H](CCSC)NC(=O)[C@H](CC(C)C)NC(=O)[C@H](Cc1c[nH]c2ccccc12)NC(=O)[C@H](CCC(N)=O)NC(=O)[C@@H](NC(=O)[C@H](Cc1ccccc1)NC(=O)[C@H](CC(=O)O)NC(=O)[C@H](CCCCN)NC(=O)[C@H](C)NC(=O)[C@H](CCCNC(=N)N)NC(=O)[C@H](CCCNC(=N)N)NC(=O)[C@H](CCC(=O)O)NC(=O)[C@H](CC(=O)O)NC(=O)[C@H](CC(C)C)NC(=O)[C@H](Cc1ccc(O)cc1)NC(=O)[C@H](CCCCN)NC(=O)[C@H](CO)NC(=O)[C@H](Cc1ccc(O)cc1)NC(=O)[C@H](CC(=O)O)NC(=O)[C@H](CO)NC(=O)[C@@H](NC(=O)[C@H](Cc1ccccc1)NC(=O)[C@@H](NC(=O)CNC(=O)[C@H](CCC(N)=O)NC(=O)C(C)(C)NC(=O)[C@@H](N)Cc1c[nH]cn1)[C@@H](C)O)[C@@H](C)O)C(C)C)[C@@H](C)O)C(=O)N[C@@H](C)C(N)=O (H-H[Aib]QGTFTSDYSKYLDERRAKDFVQWLMNTKRNRNNIA-NH2)
6.14	3.47	CC[C@H](C)[C@H](NC(=O)[C@H](CC(N)=O)NC(=O)[C@H](CC(N)=O)NC(=O)[C@H](CCCNC(=N)N)NC(=O)[C@H](CC(N)=O)NC(=O)[C@H](CCCNC(=N)N)NC(=O)[C@H](CCCCN)NC(=O)[C@@H](NC(=O)[C@H](CC(N)=O)NC(=O)[C@H](CCSC)NC(=O)[C@H](CC(C)C)NC(=O)[C@H](Cc1c[nH]c2ccccc12)NC(=O)[C@H](CCC(N)=O)NC(=O)[C@@H](NC(=O)[C@H](Cc1ccccc1)NC(=O)[C@H](CC(=O)O)NC(=O)[C@H](CCC(N)=O)NC(=O)[C@H](C)NC(=O)[C@H](CCCNC(=N)N)NC(=O)[C@H](CCCNC(=N)N)NC(=O)[C@H](CCC(=O)O)NC(=O)[C@H](CC(=O)O)NC(=O)[C@H](CC(C)C)NC(=O)[C@H](Cc1ccc(O)cc1)NC(=O)[C@H](CCCCN)NC(=O)[C@H](CO)NC(=O)[C@H](Cc1ccc(O)cc1)NC(=O)[C@H](CC(=O)O)NC(=O)[C@H](CO)NC(=O)[C@@H](NC(=O)[C@H](Cc1ccccc1)NC(=O)[C@@H](NC(=O)CNC(=O)[C@H](CCC(N)=O)NC(=O)C(C)(C)NC(=O)[C@@H](N)Cc1c[nH]cn1)[C@@H](C)O)[C@@H](C)O)C(C)C)[C@@H](C)O)C(=O)N[C@@H](C)C(N)=O (H-H[Aib]QGTFTSDYSKYLDERRAQDFVQWLMNTKRNRNNIA-NH2)

The remaining lines, values behind:

Compound	EC50 (Glucagon receptor) [nM]	EC50 [1] [nM]
CSCC[C@H](NC(=O)[C@H](CC(C)C)NC(=O)[C@H](Cc1c[nH]c2ccccc12)NC(=O)[C@H](CS)NC(=O)[C@@H](NC(=O)[C@H](Cc1ccccc1)NC(=O)[C@H](CCC(=O)O)NC(=O)[C@H](CCCCN)NC(=O)[C@H](C)NC(=O)[C@H](CCCNC(=N)N)NC(=O)[C@H](CCCCN)NC(=O)[C@H](CCC(=O)O)NC(=O)[C@H](CC(=O)O)NC(=O)[C@H](CC(C)C)NC(=O)[C@H](Cc1ccc(O)cc1)NC(=O)[C@H](CCCCN)NC(=O)[C@H](CO)NC(=O)[C@H](Cc1ccc(O)cc1)NC(=O)[C@H](CC(=O)O)NC(=O)[C@H](CO)NC(=O)[C@@H](NC(=O)[C@H](Cc1ccccc1)NC(=O)[C@@H](NC(=O)CNC(=O)[C@H](CCC(N)=O)NCC(C)(C)NC(=O)[C@@H](N)Cc1c[nH]cn1)[C@@H](C)O)[C@@H](C)O)C(C)C)C(=O)N[C@@H](CC(N)=O)C(=O)N[C@H](C(=O)NCC(=O)N1CCC[C@H]1C(=O)N[C@@H](CO)C(=O)N[C@@H](CO)C(=O)NCC(=O)N[C@@H](C)C(=O)N1CCC[C@H]1C(=O)N[C@@H](CO)C(N)=O)[C@@H](C)O (H-[X1]GTFTSDYSKYLDEKRAKEFVCWLMNTGPSSGAPS-NH2)	0.68	0.45
CSCC[C@H](NC(=O)[C@H](CC(C)C)NC(=O)[C@H](Cc1c[nH]c2ccccc12)NC(=O)[C@H](CCC(N)=O)NC(=O)[C@@H](NC(=O)[C@H](Cc1ccccc1)NC(=O)[C@H](CCC(=O)O)NC(=O)[C@H](CCCCN)NC(=O)[C@H](C)NC(=O)[C@H](CCCNC(=N)N)NC(=O)[C@H](CCCCN)NC(=O)[C@H](CCC(=O)O)NC(=O)[C@H](CC(=O)O)NC(=O)[C@H](CC(C)C)NC(=O)[C@H](Cc1ccc(O)cc1)NC(=O)[C@H](CCCCN)NC(=O)[C@H](CO)NC(=O)[C@H](Cc1ccc(O)cc1)NC(=O)[C@H](CC(=O)O)NC(=O)[C@H](CO)NC(=O)[C@@H](NC(=O)[C@H](Cc1ccccc1)NC(=O)[C@@H](NC(=O)CNC(=O)[C@H](CCC(N)=O)NC(=O)C(C)(C)NC(=O)[C@@H](N)Cc1c[nH]cn1)[C@@H](C)O)[C@@H](C)O)C(C)C)C(=O)N[C@@H](CC(N)=O)C(=O)N[C@H](C(=O)NCC(=O)N1CCC[C@H]1C(=O)N[C@@H](CO)C(=O)N[C@@H](CO)C(=O)NCC(=O)N[C@@H](C)C(=O)N1CCC[C@H]1C(=O)N[C@@H](CO)C(=O)N[C@@H](CS)C(N)=O)[C@@H](C)O	0.59	0.4
CSCC[C@H](NC(=O)[C@H](CC(C)C)NC(=O)[C@H](Cc1c[nH]c2ccccc12)NC(=O)[C@H](CCC(N)=O)NC(=O)[C@@H](NC(=O)[C@H](Cc1ccccc1)NC(=O)[C@H](CCC(=O)O)NC(=O)[C@H](CCCCN)NC(=O)[C@H](C)NC(=O)[C@H](CCCNC(=N)N)NC(=O)[C@H](CCCCN)NC(=O)[C@H](CCC(=O)O)NC(=O)[C@H](CC(=O)O)NC(=O)[C@H](CC(C)C)NC(=O)[C@H](Cc1ccc(O)cc1)NC(=O)[C@H](CCCCN)NC(=O)[C@H](CO)NC(=O)[C@H](Cc1ccc(O)cc1)NC(=O)[C@H](CC(=O)O)NC(=O)[C@H](CO)NC(=O)[C@@H](NC(=O)[C@H](Cc1ccccc1)NC(=O)[C@@H](NC(=O)CNC(=O)[C@H](CCC(N)=O)NC(=O)C(C)(C)NC(=O)[C@@H](N)Cc1c[nH]cn1)[C@@H](C)O)[C@@H](C)O)C(C)C)C(=O)N[C@@H](CC(N)=O)C(=O)N[C@H](C(=O)NCC(=O)N1CCC[C@H]1C(=O)N[C@@H](CO)C(=O)N[C@@H](CO)C(=O)NCC(=O)N[C@@H](C)C(=O)N1CCC[C@H]1C(=O)N[C@@H](CO)C(N)=O)[C@@H](C)O	0.53	0.36
CC[C@H](C)[C@H](NC(=O)[C@H](CC(N)=O)NC(=O)[C@H](CC(N)=O)NC(=O)[C@H](CCCNC(=N)N)NC(=O)[C@H](CC(N)=O)NC(=O)[C@H](CCCNC(=N)N)NC(=O)[C@H](CCCCN)NC(=O)[C@@H](NC(=O)[C@H](CC(N)=O)NC(=O)[C@H](CCSC)NC(=O)[C@H](CC(C)C)NC(=O)[C@H](Cc1c[nH]c2ccccc12)NC(=O)[C@H](CCC(N)=O)NC(=O)[C@@H](NC(=O)[C@H](Cc1ccccc1)NC(=O)[C@H](CCC(=O)O)NC(=O)[C@H](CCCCN)NC(=O)[C@H](C)NC(=O)[C@H](CCCNC(=N)N)NC(=O)[C@H](CCCCN)NC(=O)[C@H](CCC(=O)O)NC(=O)[C@H](CC(=O)O)NC(=O)[C@H](CC(C)C)NC(=O)[C@H](Cc1ccc(O)cc1)NC(=O)[C@H](CCCCN)NC(=O)[C@H](CO)NC(=O)[C@H](Cc1ccc(O)cc1)NC(=O)[C@H](CC(=O)O)NC(=O)[C@H](CCC(=O)O)NC(=O)[C@@H](NC(=O)[C@H](Cc1ccccc1)NC(=O)[C@@H](NC(=O)CNC(=O)[C@H](CCC(N)=O)NC(=O)C(C)(C)NC(=O)[C@@H](N)Cc1c[nH]cn1)[C@@H](C)O)[C@@H](C)O)C(C)C)[C@@H](C)O)C(=O)N[C@@H](C)C(N)=O (H-H[Aib]QGTFTEDYSKYLDEKRAKEFVQWLMNTKRNRNNIA-NH2)	9.03	17.6
